Source: paper PMC11882969 (Nature Communications, 2025)
“And” between values parts separate entries of the source, which are not always exact repeats. Identical values can stand only once. Marks after values point to notes of the source that are not given here.

How the values were obtained:
CB1 (rCB1) = CB1 (rCB1) (Rattus norvegicus, UniProt P20272); experiment: Radioligand competition binding, [3H]-CP-55,940, rat brain membranes
hCB1 = hCB1 (Homo sapiens, UniProt P21554); experiment: bioSensAll ebBRET signaling profiling, hCB1; type: cell-based; set-up: host or cells: HEK293SL cells, transient PEI transfection
hCB1, sequence (P21554 whole entry): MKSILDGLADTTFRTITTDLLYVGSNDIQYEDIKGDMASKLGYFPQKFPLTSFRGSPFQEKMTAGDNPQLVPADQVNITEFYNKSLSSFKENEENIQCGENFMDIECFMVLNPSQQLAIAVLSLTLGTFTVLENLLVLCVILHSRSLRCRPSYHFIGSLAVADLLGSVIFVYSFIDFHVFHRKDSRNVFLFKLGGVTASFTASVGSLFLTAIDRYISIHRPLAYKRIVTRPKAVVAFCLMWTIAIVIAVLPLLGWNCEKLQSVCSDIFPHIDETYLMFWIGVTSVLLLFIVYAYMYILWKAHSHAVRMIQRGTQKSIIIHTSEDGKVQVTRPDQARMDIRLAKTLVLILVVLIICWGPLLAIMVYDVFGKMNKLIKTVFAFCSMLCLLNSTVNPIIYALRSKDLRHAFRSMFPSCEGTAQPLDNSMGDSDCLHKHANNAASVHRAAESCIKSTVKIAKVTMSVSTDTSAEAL

CB1 (rCB1), sequence (P20272 whole entry): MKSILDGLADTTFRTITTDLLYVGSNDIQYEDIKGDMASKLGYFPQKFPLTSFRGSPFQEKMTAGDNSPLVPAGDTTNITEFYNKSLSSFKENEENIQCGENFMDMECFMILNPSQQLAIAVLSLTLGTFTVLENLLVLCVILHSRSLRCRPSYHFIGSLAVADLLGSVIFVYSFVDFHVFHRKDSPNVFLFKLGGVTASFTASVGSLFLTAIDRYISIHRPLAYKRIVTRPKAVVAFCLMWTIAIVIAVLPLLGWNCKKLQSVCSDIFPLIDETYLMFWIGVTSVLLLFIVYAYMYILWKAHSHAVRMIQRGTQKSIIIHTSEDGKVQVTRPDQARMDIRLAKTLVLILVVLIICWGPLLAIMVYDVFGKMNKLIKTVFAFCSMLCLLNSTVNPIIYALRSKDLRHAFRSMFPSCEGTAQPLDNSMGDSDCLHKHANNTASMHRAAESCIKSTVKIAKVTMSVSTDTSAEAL

COC(=O)C(C)(NC(=O)c1cc(C)n(-c2cccc(C(F)(F)F)c2)n1)c1cccs1 (centres unmarked) [‘4042]
pKi [95% CI] (CB1 (rCB1); rCB1): 8.7 [8.6 – 8.9]
Ki (CB1 (rCB1); read-out: Ki [95% CI], rCB1, [3H]-CP-55,940): 1.9 nM and 1.86 nM
Barr2+GRK2 hCB1 (hCB1; Log [Compound] (M) -4.22186): 92.62* and 120.7*
G13 hCB1 (hCB1; Log [Compound] (M) -4.22186): 70.6599
G15 hCB1 (hCB1; Log [Compound] (M) -4.22186): 109.73 and 102.131
Gi1 hCB1 (hCB1; Log [Compound] (M) -4.22186): 104.966 and 104.552 and 101.354
Gi2 hCB1 (hCB1; Log [Compound] (M) -4.22186): 114.417 and 105.522
GoB hCB1 (hCB1; Log [Compound] (M) -4.22186): 107.662 and 102.746 and 100.082
Gq hCB1 (hCB1; Log [Compound] (M) -4.22186): 1205
Gs hCB1 (hCB1; Log [Compound] (M) -4.22186): 6574
Barr2+GRK2 hCB1 (hCB1; Log [Compound] (M) -4.63927): 82.3587 and 72.7006
G13 hCB1 (hCB1; Log [Compound] (M) -4.63927): 46.7858 and 87.1754
G15 hCB1 (hCB1; Log [Compound] (M) -4.63927): 108.775 and 92.8459
Gi1 hCB1 (hCB1; Log [Compound] (M) -4.63927): 101.502 and 110.826 and 98.3137
Gi2 hCB1 (hCB1; Log [Compound] (M) -4.63927): 122.075 and 85.154
GoB hCB1 (hCB1; Log [Compound] (M) -4.63927): 110.056 and 106.901 and 98.7991
Gq hCB1 (hCB1; Log [Compound] (M) -4.63927): 1175
Gs hCB1 (hCB1; Log [Compound] (M) -4.63927): 6296
Gz hCB1 (hCB1; Log [Compound] (M) -4.63927): 112.813 and 91.1447
Barr2+GRK2 hCB1 (hCB1; Log [Compound] (M) -5.05788): 70.2312 and 47.6394
G15 hCB1 (hCB1; Log [Compound] (M) -5.05788): 113.05 and 88.4535
Gi1 hCB1 (hCB1; Log [Compound] (M) -5.05788): 105.528 and 109.408 and 94.1617
Gi2 hCB1 (hCB1; Log [Compound] (M) -5.05788): 116.649 and 83.6719
GoB hCB1 (hCB1; Log [Compound] (M) -5.05788): 115.498 and 117.852 and 92.0047
Gq hCB1 (hCB1; Log [Compound] (M) -5.05788): 1109
Gs hCB1 (hCB1; Log [Compound] (M) -5.05788): 6591
Gz hCB1 (hCB1; Log [Compound] (M) -5.05788): 89.4695 and 99.3467
G13 hCB1 (hCB1; Log [Compound] (M) -5.47381): 42.3393 and 80.0269
G15 hCB1 (hCB1; Log [Compound] (M) -5.47381): 106.626 and 91.4256
Gi1 hCB1 (hCB1; Log [Compound] (M) -5.47381): 102.594 and 101.052 and 96.5342
Gi2 hCB1 (hCB1; Log [Compound] (M) -5.47381): 113.717 and 80.6941
GoB hCB1 (hCB1; Log [Compound] (M) -5.47381): 111.936 and 119.903 and 88.1947
Gq hCB1 (hCB1; Log [Compound] (M) -5.47381): 1096
Gs hCB1 (hCB1; Log [Compound] (M) -5.47381): 6432
Gz hCB1 (hCB1; Log [Compound] (M) -5.47381): 99.3173 and 98.4249
Barr2+GRK2 hCB1 (hCB1; Log [Compound] (M) -5.89285): 78.4199 and 57.3671
G15 hCB1 (hCB1; Log [Compound] (M) -5.89285): 110.351 and 94.8449
Gi1 hCB1 (hCB1; Log [Compound] (M) -5.89285): 96.0236 and 103.056 and 95.3776
Gi2 hCB1 (hCB1; Log [Compound] (M) -5.89285): 120.967 and 77.6348
GoB hCB1 (hCB1; Log [Compound] (M) -5.89285): 107.616 and 111.235 and 93.9859
Gq hCB1 (hCB1; Log [Compound] (M) -5.89285): 1179
Gs hCB1 (hCB1; Log [Compound] (M) -5.89285): 6305
Gz hCB1 (hCB1; Log [Compound] (M) -5.89285): 104.129 and 105.45 and 96.7384
Barr2+GRK2 hCB1 (hCB1; Log [Compound] (M) -6.31878): 80.7003 and 54.8939
G15 hCB1 (hCB1; Log [Compound] (M) -6.31878): 115.7 and 96.7912
Gi1 hCB1 (hCB1; Log [Compound] (M) -6.31878): 96.367 and 108.992 and 101.754
Gi2 hCB1 (hCB1; Log [Compound] (M) -6.31878): 121.929 and 79.8783
GoB hCB1 (hCB1; Log [Compound] (M) -6.31878): 95.5518 and 109.274 and 88.1947
Gq hCB1 (hCB1; Log [Compound] (M) -6.31878): 1143
Gs hCB1 (hCB1; Log [Compound] (M) -6.31878): 6312
Gz hCB1 (hCB1; Log [Compound] (M) -6.31878): 91.7649 and 96.1616 and 90.8724
Barr2+GRK2 hCB1 (hCB1; Log [Compound] (M) -6.72585): 68.6764 and 46.9799
G15 hCB1 (hCB1; Log [Compound] (M) -6.72585): 112.142 and 94.2925
Gi1 hCB1 (hCB1; Log [Compound] (M) -6.72585): 106.09 and 92.9585 and 96.5936
Gi2 hCB1 (hCB1; Log [Compound] (M) -6.72585): 109.48 and 81.9179
GoB hCB1 (hCB1; Log [Compound] (M) -6.72585): 86.2761 and 114.112 and 87.3057
Gq hCB1 (hCB1; Log [Compound] (M) -6.72585): 1077
Gs hCB1 (hCB1; Log [Compound] (M) -6.72585): 6405
Gz hCB1 (hCB1; Log [Compound] (M) -6.72585): 96.9343 and 94.4158 and 89.6782
Barr2+GRK2 hCB1 (hCB1; Log [Compound] (M) -7.14267): 59.7621 and 50.2774
G15 hCB1 (hCB1; Log [Compound] (M) -7.14267): 114.268 and 99.1321
Gi1 hCB1 (hCB1; Log [Compound] (M) -7.14267): 107.604 and 101.422 and 97.765
Gi2 hCB1 (hCB1; Log [Compound] (M) -7.14267): 109.219 and 83.8759
GoB hCB1 (hCB1; Log [Compound] (M) -7.14267): 86.7157 and 119.974 and 89.2869
Gq hCB1 (hCB1; Log [Compound] (M) -7.14267): 1043
Gs hCB1 (hCB1; Log [Compound] (M) -7.14267): 7002
Gz hCB1 (hCB1; Log [Compound] (M) -7.14267): 98.2797 and 100.101 and 88.7145
Barr2+GRK2 hCB1 (hCB1; Log [Compound] (M) -7.55284): 52.5063 and 42.0336
G15 hCB1 (hCB1; Log [Compound] (M) -7.55284): 113.933 and 98.6587
Gi1 hCB1 (hCB1; Log [Compound] (M) -7.55284): 97.1473 and 109.377 and 98.1802
Gi2 hCB1 (hCB1; Log [Compound] (M) -7.55284): 110.556 and 82.2578
GoB hCB1 (hCB1; Log [Compound] (M) -7.55284): 88.4435 and 120.01 and 87.3057
Gq hCB1 (hCB1; Log [Compound] (M) -7.55284): 1071
Gs hCB1 (hCB1; Log [Compound] (M) -7.55284): 6586
Gz hCB1 (hCB1; Log [Compound] (M) -7.55284): 92.0765 and 86.4032 and 85.0169
Barr2+GRK2 hCB1 (hCB1; Log [Compound] (M) -8): 45.4579 and 41.3741
G15 hCB1 (hCB1; Log [Compound] (M) -8): 112.381 and 101.184
Gi1 hCB1 (hCB1; Log [Compound] (M) -8): 95.7115 and 104.367 and 92.5898
Gi2 hCB1 (hCB1; Log [Compound] (M) -8): 103.223 and 88.1181
GoB hCB1 (hCB1; Log [Compound] (M) -8): 98.6892 and 112.511 and 89.2869
